Starred links: 1 amine or outer side, 2 acyl side, 3 side chain; linkers in the order of their positions; H or OH if unused. Positions of bridges follow the written chain, without caps; N, C: chain ends. Non-standard residues stand in square brackets, D forms with d. Residues, ends and D or L forms follow the SMILES beside them. Groups on a side chain read outwards from the residue. *: point of attachment. Trp(1-CH2COOH) = N[C@@H](Cc1cn(CC(=O)O)c2ccccc12)C(=O)O; NH(benzothiophen-5-yl) = c1cc2cc(N*)ccc2s1; X63 = COc1cc([N+](=O)[O-])ccc1NC(=S)*; X83 = FC(F)(F)c1cc(N*)cc(C(F)(F)F)c1; X13 = O=[N+]([O-])c1ccc(NC(=S)*)cc1; X75 = S=C(Nc1ccc(C2CC2)c2ccccc12)*; X49 = N#Cc1ccccc1NC(=N)c1ccccc1N*; Hyp = O=C(O)[C@@H]1C[C@@H](O)CN1; X35 = Cc1n[nH]c2c(NC(=S)*)cccc12; X55 = COc1cc(NC(=S)*)cc(OC)c1; NMeNle = CCCC[C@H](NC)C(=O)O; NMeA = CN[C@@H](C)C(=O)O; Dab = NCC[C@H](N)C(=O)O; Dap = NC[C@H](N)C(=O)O; X46 = COc1ccc(Cl)cc1N*; CO = O=C([*:1])[*:2]; NHPh = c1ccc(N*)cc1
biological target: T1, PD-1/PD-L1 (Homo sapiens, UniProt Q9NZQ7); test: PD-1/PD-L1 Homogenous Time-Resolved Fluorescence (HTRF) binding assay; conditions: not given
T1 construct: TVMV protease site linker (C); made in house; host or cells: HEK293T cells
T1 sequence (Q9NZQ7 18-239): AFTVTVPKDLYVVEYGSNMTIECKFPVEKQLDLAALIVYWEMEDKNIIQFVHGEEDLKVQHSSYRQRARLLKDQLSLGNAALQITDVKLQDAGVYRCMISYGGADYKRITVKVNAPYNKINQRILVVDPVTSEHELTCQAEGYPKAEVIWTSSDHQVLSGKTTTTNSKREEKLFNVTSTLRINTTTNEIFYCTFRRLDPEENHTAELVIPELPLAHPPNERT
Method in brief: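 Compounds preincubated 15 min with PD-L1-His (10 nM final), then PD-1-Ig (20 nM final) added for 15 min in dPBS with 0.1% BSA, 0.05% Tween-20. Detection by Eu-cryptate anti-Ig (1 nM) and APC anti-His (20 nM) HTRF.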

Row | Compound | IC50 [nM]
1 | CCCC[C@H]1C(=O)N(C)[C@@H](CCCC)C(=O)N[C@@H](CC(C)C)C(=O)N[C@H](C(=O)NCC(N)=O)CSCC(=O)N[C@@H](Cc2ccc(O)cc2)C(=O)N(C)[C@@H](C)C(=O)N[C@@H](CC(N)=O)C(=O)N2CCC[C@H]2C(=O)N[C@@H](CNC(=S)Nc2ccc([N+](=O)[O-])cc2)C(=O)N[C@@H](CC(C)C)C(=O)N2C[C@H](O)C[C@H]2C(=O)N[C@@H](Cc2c[nH]c3ccccc23)C(=O)N[C@@H](CCNC(=S)Nc2ccc([N+](=O)[O-])cc2)C(=O)N[C@@H](Cc2cn(CC(=O)O)c3ccccc23)C(=O)N1C [Example 1025] ({CH2CO}-Y[NMeA]NP[Dap](X13)L[Hyp]W[Dab](X13)[Trp(1-CH2COOH)][NMeNle][NMeNle]LCG-NH2; thioether N-14) | 0.8

same assay, conditions: PD-L1-His 10 nM pre-incubated with inhibitor, PD-1-Ig 20 nM; read-out: HTRF IC50

Row | Compound | IC50 [nM]
2 | CCCC[C@H]1C(=O)N(C)[C@@H](CCCC)C(=O)N[C@@H](CC(C)C)C(=O)N[C@H](C(=O)NCC(N)=O)CSCC(=O)N[C@@H](Cc2ccc(O)cc2)C(=O)N(C)[C@@H](C)C(=O)N[C@@H](CC(N)=O)C(=O)N2CCC[C@H]2C(=O)N[C@@H](CNC(=S)Nc2cccc3c(C)n[nH]c23)C(=O)N[C@@H](CC(C)C)C(=O)N2C[C@H](O)C[C@H]2C(=O)N[C@@H](Cc2c[nH]c3ccccc23)C(=O)N[C@@H](CCNC(=S)Nc2cccc3c(C)n[nH]c23)C(=O)N[C@@H](Cc2cn(CC(=O)O)c3ccccc23)C(=O)N1C [Example 3052] ({CH2CO}-Y[NMeA]NP[Dap](X35)L[Hyp]W[Dab](X35)[Trp(1-CH2COOH)][NMeNle][NMeNle]LCG-NH2; thioether N-14) | 3.9
3 | CCCC[C@H]1C(=O)N(C)[C@@H](CCCC)C(=O)N[C@@H](CC(C)C)C(=O)N[C@H](C(=O)NCC(N)=O)CSCC(=O)N[C@@H](Cc2ccc(O)cc2)C(=O)N(C)[C@@H](C)C(=O)N[C@@H](CC(N)=O)C(=O)N2CCC[C@H]2C(=O)N[C@@H](CNC(=O)Nc2ccccc2)C(=O)N[C@@H](CC(C)C)C(=O)N2C[C@H](O)C[C@H]2C(=O)N[C@@H](Cc2c[nH]c3ccccc23)C(=O)N[C@@H](CCNC(=O)Nc2ccccc2)C(=O)N[C@@H](Cc2cn(CC(=O)O)c3ccccc23)C(=O)N1C [Example 1009] ({CH2CO}-Y[NMeA]NP[Dap]([CO-NHPh])L[Hyp]W[Dab]([CO-NHPh])[Trp(1-CH2COOH)][NMeNle][NMeNle]LCG-NH2; thioether N-14) | 6.5
4 | CCCC[C@H]1C(=O)N(C)[C@@H](CCCC)C(=O)N[C@@H](CC(C)C)C(=O)N[C@H](C(=O)NCC(N)=O)CSCC(=O)N[C@@H](Cc2ccc(O)cc2)C(=O)N(C)[C@@H](C)C(=O)N[C@@H](CC(N)=O)C(=O)N2CCC[C@H]2C(=O)N[C@@H](CNC(=S)Nc2ccc(C3CC3)c3ccccc23)C(=O)N[C@@H](CC(C)C)C(=O)N2C[C@H](O)C[C@H]2C(=O)N[C@@H](Cc2c[nH]c3ccccc23)C(=O)N[C@@H](CCNC(=S)Nc2ccc(C3CC3)c3ccccc23)C(=O)N[C@@H](Cc2cn(CC(=O)O)c3ccccc23)C(=O)N1C [Example 3058] ({CH2CO}-Y[NMeA]NP[Dap](X75)L[Hyp]W[Dab](X75)[Trp(1-CH2COOH)][NMeNle][NMeNle]LCG-NH2; thioether N-14) | 13
5 | CCCC[C@H]1C(=O)N(C)[C@@H](CCCC)C(=O)N[C@@H](CC(C)C)C(=O)N[C@H](C(=O)NCC(N)=O)CSCC(=O)N[C@@H](Cc2ccc(O)cc2)C(=O)N(C)[C@@H](C)C(=O)N[C@@H](CC(N)=O)C(=O)N2CCC[C@H]2C(=O)N[C@@H](CNC(=O)Nc2ccccc2C(=N)Nc2ccccc2C#N)C(=O)N[C@@H](CC(C)C)C(=O)N2C[C@H](O)C[C@H]2C(=O)N[C@@H](Cc2c[nH]c3ccccc23)C(=O)N[C@@H](CCNC(=S)Nc2cc(OC)cc(OC)c2)C(=O)N[C@@H](Cc2cn(CC(=O)O)c3ccccc23)C(=O)N1C [Example 1088] ({CH2CO}-Y[NMeA]NP[Dap]([CO-X49])L[Hyp]W[Dab](X55)[Trp(1-CH2COOH)][NMeNle][NMeNle]LCG-NH2; thioether N-14) | 2.9
6 | CCCC[C@H]1C(=O)N(C)[C@@H](CCCC)C(=O)N[C@@H](CC(C)C)C(=O)N[C@H](C(=O)NCC(N)=O)CSCC(=O)N[C@@H](Cc2ccc(O)cc2)C(=O)N(C)[C@@H](C)C(=O)N[C@@H](CC(N)=O)C(=O)N2CCC[C@H]2C(=O)N[C@@H](CNC(=O)Nc2cc(C(F)(F)F)cc(C(F)(F)F)c2)C(=O)N[C@@H](CC(C)C)C(=O)N2C[C@H](O)C[C@H]2C(=O)N[C@@H](Cc2c[nH]c3ccccc23)C(=O)N[C@@H](CCNC(=O)Nc2cc(C(F)(F)F)cc(C(F)(F)F)c2)C(=O)N[C@@H](Cc2cn(CC(=O)O)c3ccccc23)C(=O)N1C [Example 1015] ({CH2CO}-Y[NMeA]NP[Dap]([CO-X83])L[Hyp]W[Dab]([CO-X83])[Trp(1-CH2COOH)][NMeNle][NMeNle]LCG-NH2; thioether N-14) | 274

Continued, values first:

Row | IC50 [nM] | Compound
7 | 2.3 | CCCC[C@H]1C(=O)N(C)[C@@H](CCCC)C(=O)N[C@@H](CC(C)C)C(=O)N[C@H](C(=O)NCC(N)=O)CSCC(=O)N[C@@H](Cc2ccc(O)cc2)C(=O)N(C)[C@@H](C)C(=O)N[C@@H](CC(N)=O)C(=O)N2CCC[C@H]2C(=O)N[C@@H](CNC(=O)Nc2ccc3sccc3c2)C(=O)N[C@@H](CC(C)C)C(=O)N2C[C@H](O)C[C@H]2C(=O)N[C@@H](Cc2c[nH]c3ccccc23)C(=O)N[C@@H](CCNC(=O)Nc2ccc3sccc3c2)C(=O)N[C@@H](Cc2cn(CC(=O)O)c3ccccc23)C(=O)N1C [Example 3003] ({CH2CO}-Y[NMeA]NP[Dap]([CO-NH(benzothiophen-5-yl)])L[Hyp]W[Dab]([CO-NH(benzothiophen-5-yl)])[Trp(1-CH2COOH)][NMeNle][NMeNle]LCG-NH2; thioether N-14)
8 | 1.2 | CCCC[C@H]1C(=O)N(C)[C@@H](CCCC)C(=O)N[C@@H](CC(C)C)C(=O)N[C@H](C(=O)NCC(N)=O)CSCC(=O)N[C@@H](Cc2ccc(O)cc2)C(=O)N(C)[C@@H](C)C(=O)N[C@@H](CC(N)=O)C(=O)N2CCC[C@H]2C(=O)N[C@@H](CNC(=S)Nc2ccc([N+](=O)[O-])cc2OC)C(=O)N[C@@H](CC(C)C)C(=O)N2C[C@H](O)C[C@H]2C(=O)N[C@@H](Cc2c[nH]c3ccccc23)C(=O)N[C@@H](CCN)C(=O)N[C@@H](Cc2cn(CC(=O)O)c3ccccc23)C(=O)N1C [Example 1112] ({CH2CO}-Y[NMeA]NP[Dap](X63)L[Hyp]W[Dab][Trp(1-CH2COOH)][NMeNle][NMeNle]LCG-NH2; thioether N-14)
9 | 4.4 | CCCC[C@H]1C(=O)N(C)[C@@H](CCCC)C(=O)N[C@@H](CC(C)C)C(=O)N[C@H](C(=O)NCC(N)=O)CSCC(=O)N[C@@H](Cc2ccc(O)cc2)C(=O)N(C)[C@@H](C)C(=O)N[C@@H](CC(N)=O)C(=O)N2CCC[C@H]2C(=O)N[C@@H](CNC(=O)Nc2cc(Cl)ccc2OC)C(=O)N[C@@H](CC(C)C)C(=O)N2C[C@H](O)C[C@H]2C(=O)N[C@@H](Cc2c[nH]c3ccccc23)C(=O)N[C@@H](CCNC(=O)Nc2cc(Cl)ccc2OC)C(=O)N[C@@H](Cc2cn(CC(=O)O)c3ccccc23)C(=O)N1C [Example 1123] ({CH2CO}-Y[NMeA]NP[Dap]([CO-X46])L[Hyp]W[Dab]([CO-X46])[Trp(1-CH2COOH)][NMeNle][NMeNle]LCG-NH2; thioether N-14)

Reference: patent US20220389061A1, “IMMUNOMODULATORS” (priority 2019, published 2022)
